Literature values, collected in patent US8653135B1, “Alternating sympathomimetic therapy for the treatment of respiratory aliments” (Sovereign Pharmaceuticals, LLC, priority 2007, dated 2014).

Settings: when given in adequate dosages

In the case of `CNC[C@H](O)c1cccc(O)c1` [Phenylephrine, phenylephrine], the “effect on heart rate” value is listed as “slows the heart rate”.
